Data taken from publication PMC6481325, “Novel N,N-dialkyl cyanocinnamic acids as monocarboxylate transporter 1 and 4 inhibitors” (Oncotarget, 2019).
Read-outs that look alike come from different tables or passages of the source.

Experiments:
[1] = tested on: MCT4 expressing MDA-MB-231 cells; assay: Seahorse XFe96 mitochondrial stress test (OCR), MDA-MB-231; assay type: cell-based; details: 30 μM
Experimental: (§1) Extracellular acidification rates (ECAR) and oxygen consumption rates (OCR) were recorded in real-time for glycolysis stress test (GST) and mitochondrial stress test (MST), respectively, using Agilent Seahorse XFe96® analyzer.

[2] = tested on: MCT1 expressing WiDr cells; assay: Seahorse XFe96 mitochondrial stress test (OCR), WiDr; assay type: cell-based; details: 30 μM
Experimental: as §1

[3] = tested on: MCT4 expressing MDA-MB-231 cells; assay: Seahorse XFe96 glycolysis stress test (ECAR), MDA-MB-231; assay type: cell-based; details: 30 μM
Experimental: (§2) In the GST, three parameters namely glycolysis, glycolytic capacity and glycolytic reserve were measured.
as §1

[4] = tested on: MCT1 expressing WiDr cells; assay: Seahorse XFe96 glycolysis stress test (ECAR), WiDr; assay type: cell-based; details: 30 μM
Experimental: as §2, §1

MCT4 = biological target: T1, MCT4 (Homo sapiens, UniProt O15427); assay: L-[14C]-lactate uptake study in MCT4 expressing MDA-MB-231 cells; assay type: cell-based
T1 construct: These cells predominantly express MCT4 as confirmed by Western blot and quantitative PCR analysis; host or cells: MDA-MB-231
T1 sequence (O15427 2-465 limits assumed): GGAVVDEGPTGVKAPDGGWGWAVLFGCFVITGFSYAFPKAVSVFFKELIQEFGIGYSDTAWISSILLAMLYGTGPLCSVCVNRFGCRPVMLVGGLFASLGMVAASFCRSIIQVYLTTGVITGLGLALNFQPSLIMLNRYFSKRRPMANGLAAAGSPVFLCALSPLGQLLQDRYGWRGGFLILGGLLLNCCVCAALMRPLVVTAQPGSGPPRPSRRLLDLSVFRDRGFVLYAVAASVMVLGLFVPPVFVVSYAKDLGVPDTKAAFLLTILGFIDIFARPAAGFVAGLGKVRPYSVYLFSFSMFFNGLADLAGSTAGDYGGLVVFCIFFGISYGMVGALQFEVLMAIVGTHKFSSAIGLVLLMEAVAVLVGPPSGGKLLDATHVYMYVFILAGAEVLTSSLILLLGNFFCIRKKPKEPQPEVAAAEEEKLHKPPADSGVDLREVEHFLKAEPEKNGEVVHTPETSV
T1 sequence (P35613 140-385 partner limits assumed): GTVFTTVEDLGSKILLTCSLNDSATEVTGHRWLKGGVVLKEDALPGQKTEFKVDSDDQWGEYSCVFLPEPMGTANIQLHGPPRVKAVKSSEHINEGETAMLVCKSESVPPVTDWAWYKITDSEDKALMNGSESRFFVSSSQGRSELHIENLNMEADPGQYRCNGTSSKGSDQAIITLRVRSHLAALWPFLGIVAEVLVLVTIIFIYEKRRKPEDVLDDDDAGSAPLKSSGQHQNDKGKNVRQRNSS
Experimental: In this study, an L-[^14C]-lactate based transport assay was developed by us to quantify MCT4 transport and its inhibition by test compounds. […] For the MCT4 transport assay, the pH of HEPES buffer with L-[^14C]-lactate was adjusted to 7.0 such that lactate influx into the cells was aided by the pH gradient. […] Test compounds were diluted to working concentration in HEPES buffer (140 mM NaCl, 5 mM KCl, 2 mM CaCl2, 2 mM MgCl2, 10 mM HEPES, pH 7.0) containing 3 μM L-[^14C]-lactate (Perkin Elmer) and 2 μM L-lactate. […] HEPES buffer was replaced with 250 μL test solution. After 1 hour, media was replaced with 500 μL ice-cold stop buffer (0.1 mM CHC solution in HBS, pH 7.4) and the plates were placed on ice. Cells were washed twice with ice-cold stop buffer and solubilized using 250 μL of 0.1 M NaOH in 5% Triton-X (Millipore Sigma). A 150 μL aliquot from each well was added to 4 mL EcoLite(+)™ scintillation fluid (MP Biomedicals) and radioactivity was determined by scintillation spectrometry. Inhibition by each test solution was calculated as a percentage of the maximum control uptake. CHC and dimethylsulfoxide (DMSO) were used as controls. […]

WiDr cells = assay: SRB cell proliferation inhibition assay, WiDr; assay type: cell-based; details: Homo sapiens, 72 hours, average ± sem
Experimental: (§3) MDA-MB-231 cells (ATCC, 2015) were grown in DMEM supplemented with 10% FBS and penicillin-streptomycin (50 U/ml, 50 μg/ml, Invitrogen). WiDr cells (ATCC, 2017) were cultured in MEM medium supplemented with 10% FBS (Atlanta Biologicals) and penicillin-streptomycin (50 U/ml, 50 μg/ml). For in vitro experiments, after seeding, cells were incubated at 37°C in 5% CO2 for 18–24 hours before the addition of test compounds.
(§4) Cells (5 × 10^4 cells/mL) were cultured in 48-well plates. Test compounds were dissolved in DMSO (final concentration of DMSO is <0.1%) and were added to culture wells at various concentrations in replicate and incubated for 72 hours. Growth medium was removed and the wells were washed with PBS and dried. SRB (0.5% in 1% acetic acid) was added to the wells and incubated for 30–45 minutes. The wells were washed 3 times with 1% acetic acid and dried. The cellular protein was dissolved in trizma base (10 mM, pH 10.2) and absorbance was recorded at 540 nm. Percent survival was calculated using the formula %Survival=Abstest compound/Abscontrol×100 .

MCT1 = details: RBE4 cells, cited from earlier work
MDA-MB-231 cells = assay: SRB cell proliferation inhibition assay, MDA-MB-231; assay type: cell-based; details: Homo sapiens, 72 hours, average ± sem
Experimental: as §3, §4

[5] = tested on: MDA-MB-231 tumor xenograft; assay: Tumor growth inhibition, MDA-MB-231 xenograft model; assay type: in vivo; details: SCID mice
Experimental: Figure 6 In vivo xenograft studies in WiDr and MDA-MB-231 tumor models (A) WiDr tumor xenograft study of compound 3 and compound 9. Mice (n = 8) were treated with 8 mg/kg of compound 3, intraperitoneally, two times a day. (B) Tumor growth inhibition study with compound 9 in MDA-MB-231 tumor xenograft model (n = 6). Mice were treated with compound 9 (70 mg/kg, ip, bid until day-4; qd from day-5), a combination of 9 and doxorubicin (0.5 mg/kg, ip, five days a week), and doxorubicin. (C) Tumor growth inhibition based on isolated tumor mass. ^*P < 0.05, ^**P < 0.01, ^***P < 0.001, ^****P < 0.0001. Schematic representation of (D) untreated tumor cells and (E) inhibition of MCT1 and MCT4 and decreased glycolysis and mitochondrial OxPhos in compound 9 treated tumor cells. Upward hollowed arrow indicates “increase” in function/amount and downward hollowed arrow indicates “decrease” in function/amount.
Group-1 was administered with compound 9, group-2 was given a combination of compound 9 and clinical breast cancer drug doxorubicin (AKSci catalog # E518), and group-3 was treated with doxorubicin alone. Group-4 was assigned as a control group and treated with vehicle (10% DMSO in saline). The treatment was continued up to 18 days and on day 20, the mice were euthanized and tumor masses isolated and weighed. […] Due to these reasons, higher dosages of compound 9 were required to produce significant anticancer efficacy in vivo. In all these studies, <20% of body weight loss was observed.
Tumor cells suspended in 1:1 matrigel-PBS were injected on right flank of female SCID mice (n = 6 mice/group, 10^7 MDA-MB-231 cells) or right flank of female athymic nude mice (n = 8 mice/group, 5 × 10^6 WiDr cells). Tumors were measured using calipers every 2–3 days and tumor volumes were calculated using the formula V = ab^2/2 where ‘a’ is the long diameter of the tumor and ‘b’ is the short diameter of the tumor. Tumor growth inhibition was determined using the formula % inhibition = [(C – T)/C] × 100 where C is average tumor weight of the control group and T is the average tumor weight of the test group.

[6] = Supplementary Table 1, average ± SEM, read-out: MCT4 IC50
[7] = Supplementary Table 1, average ± SEM

Cc1[nH]nc(C(F)(F)F)c1Cc1sc2c(c1C(=O)N1C[C@](C)(O)CO1)c(=O)n(C)c(=O)n2C(C)C [AZD3965, reference compound]
ATP production (MST, OCR) [1]: did not affect
maximal respiration (MST, OCR) [1]: did not affect
proton leak (MST, OCR) [1]: did not affect
spare respiratory capacity (MST, OCR) [1]: did not affect
ATP production (MST, OCR) [2]: did not affect
maximal respiration (MST, OCR) [2]: did not affect
proton leak (MST, OCR) [2]: did not affect
spare respiratory capacity (MST, OCR) [2]: did not affect
glycolysis (GST, ECAR) [3]: did not show any glycolysis inhibition
glycolytic capacity (GST, ECAR) [3]: decreased glycolytic capacity only in WiDr
glycolytic reserve (GST, ECAR) [3]: decreased glycolytic reserve only in MCT1 expressing WiDr
glycolytic capacity (GST, ECAR) [4]: decreased
glycolytic reserve (GST, ECAR) [4]: decreased

C=CCN(CC=C)c1ccc(/C=C(\C#N)C(=O)O)c(OC)c1 [Allyl (2)]
IC50 (MCT4; Figure 1A and text, lactate uptake, read-out: MCT4 IC50): 28 nM
IC50 (MCT4; [6]): 24 ± 6 nM
IC50 (WiDr cells): > 25000 nM
IC50 (MCT1; [7]): 29 ± 2 nM
IC50 (MDA-MB-231 cells): > 25000 nM

CCCN(CCC)c1ccc(/C=C(\C#N)C(=O)O)c(OC)c1 [Propyl (1)]
IC50 (MCT4; [6]): 11 ± 1 nM
IC50 (WiDr cells): > 25000 nM
IC50 (MCT1; [7]): 12 ± 1 nM
IC50 (MDA-MB-231 cells): > 25000 nM

COc1cc(N(CC(C)C)CC(C)C)ccc1/C=C(\C#N)C(=O)O [Isobutyl (4)]
IC50 (MCT4; [6]): 17 ± 2 nM
IC50 (WiDr cells): > 25000 nM
IC50 (MCT1; [7]): 11 ± 4 nM
IC50 (MDA-MB-231 cells): > 25000 nM

CCCCN(CCCC)c1ccc(/C=C(\C#N)C(=O)O)c(OC)c1 [Butyl (3)]
ATP production (MST, OCR) [1]: decreased
maximal respiration (MST, OCR) [1]: decreased
spare respiratory capacity (MST, OCR) [1]: decreased
ATP production (MST, OCR) [2]: decreased
maximal respiration (MST, OCR) [2]: decreased
spare respiratory capacity (MST, OCR) [2]: decreased
IC50 (MCT4; [6]): 14 ± 2 nM
IC50 (WiDr cells): > 25000 nM
glycolytic capacity (GST, ECAR) [4]: significant decrease
glycolytic reserve (GST, ECAR) [4]: significant decrease
IC50 (MDA-MB-231 cells): > 25000 nM

COc1cccc2c1C(=O)c1c(O)c3c(c(O)c1C2=O)C[C@@](O)(C(=O)CO)C[C@@H]3O[C@H]1C[C@H](N)[C@H](O)[C@H](C)O1 [doxorubicin, reference compound]
tumor growth inhibition based on tumor volume ([5]; 9 70 mg/kg ip bid until day-4, qd from day-5, doxorubicin 0.5 mg/kg ip five days a week, treatment up to 18 days): 48%
tumor growth inhibition based on isolated tumor weights ([5]; same regimens, tumors isolated on day 20): 52%

COc1cc(N2CCCCC2)ccc1/C=C(\C#N)C(=O)O [Piperidinyl (7)]
IC50 (MCT4; [6]): 58 ± 13 nM
IC50 (WiDr cells): > 25000 nM
IC50 (MCT1; [7]): 25 ± 5 nM
IC50 (MDA-MB-231 cells): > 25000 nM

COc1cc(N(Cc2ccccc2)Cc2ccccc2)ccc1/C=C(\C#N)C(=O)O [Benzyl (8)]
IC50 (MCT4; [6]): 32 ± 3 nM
IC50 (WiDr cells): > 25000 nM
IC50 (MCT1; Figure 1A and text, lactate uptake): 37 nM
IC50 (MCT1; [7]): 25 ± 3 nM
IC50 (MDA-MB-231 cells): > 25000 nM

CCCCCN(CCCCC)c1ccc(/C=C(\C#N)C(=O)O)c(OC)c1 [Pentyl (5)]
IC50 (MCT4; [6]): 85 ± 8 nM
IC50 (WiDr cells): > 25000 nM
IC50 (MCT1; [7]): 34 ± 7 nM
IC50 (MDA-MB-231 cells): > 25000 nM

N#CC(=Cc1ccc(O)cc1)C(=O)O [CHC, α-cyano-4-hydroxy cinnamic acid, reference compound]
ATP production (MST, OCR) [1]: did not affect
maximal respiration (MST, OCR) [1]: did not affect
proton leak (MST, OCR) [1]: did not affect
spare respiratory capacity (MST, OCR) [1]: did not affect
ATP production (MST, OCR) [2]: did not affect
maximal respiration (MST, OCR) [2]: did not affect
proton leak (MST, OCR) [2]: did not affect
spare respiratory capacity (MST, OCR) [2]: did not affect
glycolysis (GST, ECAR) [3]: did not affect
glycolytic capacity (GST, ECAR) [3]: did not affect
glycolytic reserve (GST, ECAR) [3]: decreased glycolytic reserve only in MCT1 expressing WiDr
IC50 (MCT4; MCT4 IC50, CHC, lactate uptake): ≥ 150000 nM
glycolysis (GST, ECAR) [4]: did not affect
glycolytic capacity (GST, ECAR) [4]: did not affect
glycolytic reserve (GST, ECAR) [4]: decreased
IC50 (MCT1; CHC, lactate uptake): ≥ 150000 nM

COc1cc(N2CCCC2)ccc1/C=C(\C#N)C(=O)O [Pyrrolidinyl (6)]
IC50 (WiDr cells): > 25000 nM
IC50 (MDA-MB-231 cells): > 25000 nM
